Source: ChEMBL document CHEMBL1201862, “PubChem BioAssay data set” (2004)
Calls of active or inactive are those of the source.

Key:
[1] = biological target: T1, Corticotropin-releasing factor receptor 2/Corticotropin-releasing factor-binding protein (Homo sapiens, UniProt P24387+Q13324); experiment: activators of CRF receptor 2 with binding protein – uHTS hits, confirmation (AID 602473); type: functional; conditions: read-out: EC50_Mean
T1 sequence (Q13324 whole entry): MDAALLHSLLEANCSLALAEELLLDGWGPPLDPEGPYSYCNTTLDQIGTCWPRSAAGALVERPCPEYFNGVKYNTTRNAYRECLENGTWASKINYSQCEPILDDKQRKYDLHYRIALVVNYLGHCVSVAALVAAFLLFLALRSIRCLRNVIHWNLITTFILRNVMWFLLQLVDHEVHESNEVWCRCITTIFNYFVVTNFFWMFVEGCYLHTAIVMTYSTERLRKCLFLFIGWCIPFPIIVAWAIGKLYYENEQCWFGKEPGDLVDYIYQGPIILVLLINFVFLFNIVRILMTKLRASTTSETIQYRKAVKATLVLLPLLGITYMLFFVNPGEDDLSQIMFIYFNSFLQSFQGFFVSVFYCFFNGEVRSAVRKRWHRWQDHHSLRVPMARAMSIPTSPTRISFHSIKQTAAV
T1 sequence (P24387 whole entry): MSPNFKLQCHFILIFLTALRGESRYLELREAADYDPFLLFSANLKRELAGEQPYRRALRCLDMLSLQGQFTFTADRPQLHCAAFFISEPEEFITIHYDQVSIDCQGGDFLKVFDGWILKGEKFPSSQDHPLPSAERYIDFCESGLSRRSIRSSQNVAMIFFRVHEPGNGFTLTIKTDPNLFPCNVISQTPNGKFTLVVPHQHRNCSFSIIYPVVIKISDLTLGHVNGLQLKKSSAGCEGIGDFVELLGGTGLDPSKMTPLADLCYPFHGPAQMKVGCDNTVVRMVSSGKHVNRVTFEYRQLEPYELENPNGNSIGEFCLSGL

[2] = biological target: T2, RNA-binding protein pos-1 (Caenorhabditis elegans, UniProt G5EF15); experiment: inhibitors of POS-1/mex-3 RNA binding, dose response, biochemical, fluorescence polarization (AID 1964);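 also: purified POS-1 fused to maltose binding protein made in E. coli; potency of compounds blocking POS-1 binding to fluorescent RNA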
T2 sequence (G5EF15 whole entry): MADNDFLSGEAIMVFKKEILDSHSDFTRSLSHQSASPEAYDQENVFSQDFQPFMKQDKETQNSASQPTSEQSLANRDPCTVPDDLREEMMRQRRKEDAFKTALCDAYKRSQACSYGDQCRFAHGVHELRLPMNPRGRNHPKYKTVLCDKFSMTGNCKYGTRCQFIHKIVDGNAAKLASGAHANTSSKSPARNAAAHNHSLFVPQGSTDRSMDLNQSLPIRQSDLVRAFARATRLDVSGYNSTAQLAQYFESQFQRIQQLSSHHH

Beta Lactamase = Beta Lactamase (Pseudomonas aeruginosa, UniProt Q932Y6); experiment: beta-lactamase reporter inhibitor potency, dose response, artefact control for TLR9-MyD88 binding inhibitor project, BLA reporter cells, FRET fluorescence (AID 588341); type: cell-based;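 also: cell based assay in CHO-K1 cells stably expressing beta-lactamase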
[3] = biological target: T3, Zinc finger protein mex-5 (Caenorhabditis elegans, UniProt Q9XUB2); experiment: MEX-5/TCR-2 RNA interaction inhibitors, dose response, biochemical, C. elegans, fluorescence polarization (AID 1960)
T3 sequence (Q9XUB2 whole entry): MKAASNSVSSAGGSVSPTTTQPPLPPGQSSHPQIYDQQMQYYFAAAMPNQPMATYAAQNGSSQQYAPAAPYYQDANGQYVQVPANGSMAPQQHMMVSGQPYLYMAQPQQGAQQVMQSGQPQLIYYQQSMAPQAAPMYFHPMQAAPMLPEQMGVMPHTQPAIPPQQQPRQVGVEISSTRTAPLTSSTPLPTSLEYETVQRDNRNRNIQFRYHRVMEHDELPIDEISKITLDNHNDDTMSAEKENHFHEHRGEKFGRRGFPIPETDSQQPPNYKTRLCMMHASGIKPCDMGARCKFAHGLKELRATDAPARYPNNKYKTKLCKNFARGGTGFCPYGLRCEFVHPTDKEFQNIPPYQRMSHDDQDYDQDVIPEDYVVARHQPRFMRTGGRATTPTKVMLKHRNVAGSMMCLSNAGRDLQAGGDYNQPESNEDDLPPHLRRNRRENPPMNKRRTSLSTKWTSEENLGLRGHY

CHO = experiment: cytotoxicity in TLR9-MyD88 CHO cells, dose response, cytotoxicity control for TLR9-MyD88 binding inhibitor project, cell-based, luminescence (AID 588339); type: functional, hamster; conditions: Cricetulus griseus;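 also: CHO cells stably coexpressing TLR9 and MyD88 fusions from primary screen; compound exposure lasted 48 hours before viability readout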
[4] = biological target: Voltage-gated inwardly rectifying potassium channel KCNH2 (Homo sapiens, UniProt Q12809); conditions: Potency;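 also: confirmatory quantitative high-throughput screen measuring inhibition of hERG channel activity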
[5] = biological target: T4, Apoptotic protease-activating factor 1 (Homo sapiens, UniProt O14727); experiment: SAR analysis of small molecule Activators of Apaf-1 in a Fluorescent assay.; type: functional; conditions: read-out: EC50_Mean
T4 sequence (O14727 whole entry): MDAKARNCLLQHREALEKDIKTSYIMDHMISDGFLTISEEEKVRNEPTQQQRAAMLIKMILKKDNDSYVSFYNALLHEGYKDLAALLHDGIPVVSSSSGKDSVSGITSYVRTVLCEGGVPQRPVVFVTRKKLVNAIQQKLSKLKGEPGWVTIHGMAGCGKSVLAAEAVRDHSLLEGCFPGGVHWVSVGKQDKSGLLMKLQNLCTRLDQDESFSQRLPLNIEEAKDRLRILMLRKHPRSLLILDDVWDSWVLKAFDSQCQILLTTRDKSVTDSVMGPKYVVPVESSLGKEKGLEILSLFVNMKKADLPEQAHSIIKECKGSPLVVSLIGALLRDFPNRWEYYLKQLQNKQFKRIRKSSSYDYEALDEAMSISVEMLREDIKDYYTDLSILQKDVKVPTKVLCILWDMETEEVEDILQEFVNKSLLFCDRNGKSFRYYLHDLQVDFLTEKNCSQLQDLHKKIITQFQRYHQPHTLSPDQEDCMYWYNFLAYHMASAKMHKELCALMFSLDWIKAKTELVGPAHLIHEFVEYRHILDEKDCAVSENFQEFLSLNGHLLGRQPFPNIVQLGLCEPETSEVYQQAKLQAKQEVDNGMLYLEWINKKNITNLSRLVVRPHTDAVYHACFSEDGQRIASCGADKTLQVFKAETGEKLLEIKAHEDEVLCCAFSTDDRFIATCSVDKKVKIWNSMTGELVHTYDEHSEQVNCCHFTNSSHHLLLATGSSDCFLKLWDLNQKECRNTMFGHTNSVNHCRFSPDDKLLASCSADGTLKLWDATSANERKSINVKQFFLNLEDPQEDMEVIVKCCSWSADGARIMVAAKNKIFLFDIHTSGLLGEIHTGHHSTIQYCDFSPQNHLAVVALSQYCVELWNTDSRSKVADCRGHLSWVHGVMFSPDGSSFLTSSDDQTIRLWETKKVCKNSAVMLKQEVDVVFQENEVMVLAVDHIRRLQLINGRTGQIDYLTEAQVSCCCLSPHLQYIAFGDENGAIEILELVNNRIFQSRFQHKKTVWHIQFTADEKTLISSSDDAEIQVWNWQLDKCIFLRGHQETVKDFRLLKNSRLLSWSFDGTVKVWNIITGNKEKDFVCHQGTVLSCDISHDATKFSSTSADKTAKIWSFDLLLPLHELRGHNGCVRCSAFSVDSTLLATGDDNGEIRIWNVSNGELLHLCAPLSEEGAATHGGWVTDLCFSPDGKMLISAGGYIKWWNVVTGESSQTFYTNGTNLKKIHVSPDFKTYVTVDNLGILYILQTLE

[6] = Luminescence Cell-Based Dose Retest to Confirm Inhibitors of Cancer Stem Cells. [Related pubchem assays (depositor defined):AID2717, AID2721]; type: functional; conditions: Homo sapiens
[7] = cytotoxicity in HMLE control line with eGFP shRNA, dose response, counter-screen for HMLE_sh_ECad selective toxicity project, cell-based, HMLE_sh_eGFP, luminescence (AID 463074); type: functional, Homo sapiens;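 also: HMLE human mammary epithelial cells expressing control shRNA against eGFP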
Streptococcus = experiment: Group A Streptococcus viability loss, dose response, counter-screen for streptokinase expression inhibitor project, luminescence, BacTiterGlo (AID 1915); type: functional, organism-based;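 also: potency for reduction of bacterial viability or growth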
Streptokinase A = biological target: T5, Streptokinase A (Streptococcus pyogenes serotype M1, UniProt P10520); experiment: S. pyogenes streptokinase expression inhibitors, potency, dose response, plasminogen activation absorbance, OD405 (AID 1914); type: functional, Streptococcus pyogenes M1 GAS;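 also: secreted streptokinase activity via plasminogen activation per viability signal from cell pellet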
T5 sequence (P10520 whole entry): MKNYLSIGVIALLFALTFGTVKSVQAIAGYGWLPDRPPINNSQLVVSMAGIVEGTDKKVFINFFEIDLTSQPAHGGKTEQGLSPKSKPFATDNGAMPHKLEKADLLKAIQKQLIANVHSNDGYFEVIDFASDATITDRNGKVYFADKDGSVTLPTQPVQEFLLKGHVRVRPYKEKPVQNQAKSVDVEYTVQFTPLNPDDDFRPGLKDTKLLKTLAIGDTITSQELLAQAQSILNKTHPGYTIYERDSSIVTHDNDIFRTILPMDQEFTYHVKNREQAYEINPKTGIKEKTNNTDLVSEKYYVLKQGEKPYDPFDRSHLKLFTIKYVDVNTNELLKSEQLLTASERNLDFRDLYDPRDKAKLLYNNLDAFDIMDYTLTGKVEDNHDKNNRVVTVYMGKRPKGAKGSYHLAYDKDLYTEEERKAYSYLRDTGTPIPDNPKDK

[8] = tested on: Streptococcus sp. 'group A'; experiment: growth inhibition of control SK(-) GAS strain, dose response, counter-screen for streptokinase expression inhibitor project, luminescence, kanamycin, BacTiterGlo, confirmation (AID 1900); type: functional, organism-based
Escherichia coli = experiment: microbe, parasite or virus in culture
HEK293 [9] = experiment: cells; conditions: Homo sapiens
[10] = Fluorescence-based cell-based high throughput dose response assay for inhibitors of the interaction of nucleotide-binding oligomerization domain containing 2 (NOD2) and the receptor-interacting serine-threonine kinase 2 (RIPK2).; type: functional; conditions: Homo sapiens
HEK293 [11] = experiment: cells; conditions: Homo sapiens; remark: listed apart in the source
[12] = biological target: T6, Probable nicotinate-nucleotide adenylyltransferase (Staphylococcus aureus (strain N315), UniProt P65502); type: functional, Staphylococcus aureus subsp. aureus N315;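 as to IC50 Mean: confirmatory dose-response retesting of NadD inhibitor hits first found in an ultra-high-throughput screen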
Vero = experiment: cells; type: functional; conditions: Chlorocebus sabaeus
[13] = biological target: T6, Probable nicotinate-nucleotide adenylyltransferase; type: functional, Staphylococcus aureus subsp. aureus N315; conditions: read-out: IC50_Mean
[14] = biological target: T4, Apoptotic protease-activating factor 1; experiment: SAR analysis of small molecule inhibitors of Apaf-1 in a Fluorescent assay.; type: functional; conditions: read-out: IC50_Mean

Chain of Beta Lactamase (Q932Y6 whole entry): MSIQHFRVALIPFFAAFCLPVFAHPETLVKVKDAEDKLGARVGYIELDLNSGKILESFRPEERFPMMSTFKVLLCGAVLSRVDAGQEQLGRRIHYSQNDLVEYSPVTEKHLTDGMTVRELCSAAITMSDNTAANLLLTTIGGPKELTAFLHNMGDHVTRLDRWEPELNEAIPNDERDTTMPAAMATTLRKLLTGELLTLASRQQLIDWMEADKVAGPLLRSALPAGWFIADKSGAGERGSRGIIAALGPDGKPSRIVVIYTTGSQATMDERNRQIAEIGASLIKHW
T6 sequence (P65502 whole entry): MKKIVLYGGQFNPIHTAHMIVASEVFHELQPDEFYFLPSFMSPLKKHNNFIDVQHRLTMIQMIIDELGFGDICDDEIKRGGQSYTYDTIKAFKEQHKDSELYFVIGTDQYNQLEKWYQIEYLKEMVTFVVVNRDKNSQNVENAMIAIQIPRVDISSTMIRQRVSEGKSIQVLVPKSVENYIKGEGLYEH
Chain of Voltage-gated inwardly rectifying potassium channel KCNH2 (Q12809 whole entry): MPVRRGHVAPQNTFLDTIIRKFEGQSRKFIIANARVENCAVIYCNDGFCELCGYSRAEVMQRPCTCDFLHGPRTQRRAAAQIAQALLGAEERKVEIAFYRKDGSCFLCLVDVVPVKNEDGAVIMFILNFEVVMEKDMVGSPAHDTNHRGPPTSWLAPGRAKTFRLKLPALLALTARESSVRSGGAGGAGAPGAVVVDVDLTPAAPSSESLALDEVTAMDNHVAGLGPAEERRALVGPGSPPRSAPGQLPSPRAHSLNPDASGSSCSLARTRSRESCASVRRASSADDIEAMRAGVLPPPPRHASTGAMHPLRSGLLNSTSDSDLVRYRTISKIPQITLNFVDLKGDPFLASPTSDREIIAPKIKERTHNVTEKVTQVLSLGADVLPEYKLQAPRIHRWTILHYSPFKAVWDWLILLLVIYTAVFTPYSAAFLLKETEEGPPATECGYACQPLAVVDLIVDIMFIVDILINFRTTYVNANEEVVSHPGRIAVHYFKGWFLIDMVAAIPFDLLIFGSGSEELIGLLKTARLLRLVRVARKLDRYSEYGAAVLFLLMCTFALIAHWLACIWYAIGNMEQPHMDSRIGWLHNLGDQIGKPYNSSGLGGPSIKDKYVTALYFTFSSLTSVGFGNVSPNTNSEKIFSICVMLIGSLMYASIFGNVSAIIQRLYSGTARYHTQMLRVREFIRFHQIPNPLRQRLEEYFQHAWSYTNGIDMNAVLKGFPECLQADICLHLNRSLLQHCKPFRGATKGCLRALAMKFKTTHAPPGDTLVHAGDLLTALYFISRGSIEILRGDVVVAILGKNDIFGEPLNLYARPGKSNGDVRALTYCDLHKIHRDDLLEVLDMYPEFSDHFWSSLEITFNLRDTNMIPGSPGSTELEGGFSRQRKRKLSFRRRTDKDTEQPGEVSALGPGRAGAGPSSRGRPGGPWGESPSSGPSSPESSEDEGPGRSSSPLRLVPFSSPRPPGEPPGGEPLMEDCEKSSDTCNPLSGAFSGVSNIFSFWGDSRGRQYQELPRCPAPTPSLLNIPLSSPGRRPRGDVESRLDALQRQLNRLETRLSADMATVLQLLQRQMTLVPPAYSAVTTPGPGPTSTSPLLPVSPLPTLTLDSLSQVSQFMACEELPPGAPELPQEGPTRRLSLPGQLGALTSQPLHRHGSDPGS

Q: With `COc1ccc(C(=O)c2sc3nc(C)cc(-c4cccs4)c3c2N)cc1` as the molecule, how does the EC50 [1] read?
A: 6.58 µM (active)

Q: And the EC50 [2]?
A: 16.9 µM (active)

Q: What about the IC50 (Beta Lactamase) of the same molecule?
A: 3.85 µM (active)

Q: And the EC50 [3]?
A: 11 µM (active)

Q: What about the IC50 (CHO) of the same molecule?
A: > 49.7 µM (inactive)

Q: Which AC50 [4] does the source give for `NC(Cc1ccc(N(CCCl)CCCl)cc1)C(=O)O` (configuration not stated) [SARCOLYSIN] here?
A: 35.5 µM (inconclusive)

Q: For `O=C(O)[C@@H]1COC(c2ccc(F)cc2F)=N1`, which EC50 [5] is on record?
A: > 100 µM (inactive)

Q: Which AC50 [6] does the source give for `Cc1ccc(CSc2ccc(-c3ccc4c(c3)OCO4)nn2)cc1` here?
A: 1.46 µM (active)

Q: What about the AC50 [7] of the same molecule?
A: 43.6 µM (active)

Q: Which EC50 (Streptococcus) does the source give for `CC(C)(C)c1ccc(OCC(O)CS(=O)(=O)c2ccccn2)cc1` (configuration not stated) here?
A: > 150 µM (not active)

Q: What about the EC50 (Streptokinase A) of the same molecule?
A: > 150 µM (not active)

Q: And the EC50 [8]?
A: > 150 µM (not active)

Q: And the AC50 (Escherichia coli)?
A: 23.7 µM (active)

Q: Which results are given for `O=[N+]([O-])c1ccc(Sc2ccncn2)c([N+](=O)[O-])c1`?
A: EC50 (HEK293 [9]): > 59.6 µM (inactive); IC50 [10]: 7.56 µM (active); EC50 (HEK293 [11]): > 59.6 µM (inactive)

Q: Which IC50 [12] does the source give for `COc1cc(/C=C/c2ccc3c(Br)cc(Br)c(O)c3n2)ccc1O` here?
A: 10.1 µM (active)

Q: What about the CC50 (Vero) of the same molecule?
A: 13.4 µM (active)

Q: And the IC50 [13]?
A: 44.9 µM (active)

Q: And the IC50 (Beta Lactamase)?
A: 7.68 µM (active)

Q: What about the IC50 (CHO) of the same molecule?
A: 7.79 µM (active)

Q: With `O=C(Nc1ccc2nc(-c3ccc(Br)o3)[nH]c2c1)c1cccs1` as the molecule, how does the IC50 [14] read?
A: > 100 µM (inactive)
